Data taken from PMC8068036, “Synthesis of New Biscoumarin Derivatives, In Vitro Cholinesterase Inhibition, Molecular Modelling and Antiproliferative Effect in A549 Human Lung Carcinoma Cells” (International Journal of Molecular Sciences, 2021).
Where two headings read alike, the source gives them in different places.

Tests used:
A549 cancer cell line = settings: ref 55 (Huang et al.); cited from earlier work
[1] = tested on: human umbilical vein endothelial cell (HUVEC) cell line; settings: ref 55 (Huang et al.); cited from earlier work
A549 cells [2] = assay: MTT assay, A549; format: cell-based, human; settings: for Metabolic activity of A549 cells (in words): 10 to 100 μM, 24 and 48 h; for IC50: Homo sapiens
Procedure: (§1) Human lung carcinoma cell line A549 and CCD-18Co colon fibroblasts were purchased from the American Type Culture Collection (ATCC, Rockville, MD, USA). The A549 cells were cultured in a complete RPMI-1640 medium (Sigma-Aldrich, St. Louis, MO, USA), and CCD-18Co cells were cultured in an MEM medium (PAN-Biotech GmbH, Aidenbach, Germany). The media were supplemented with 10% fetal bovine serum (FBS; Biosera, Nuaille, France) and antibiotics (1% Antibiotic-Antimycotic 100× and 50 × 10^−3 g l^−1 gentamicin; Biosera) at 37 °C, 95% humidity, and 5% CO2.
(§2) Prior to the selected treatments, cells were seeded on 12-well μ-Chamber slides (ibidi GmbH, Martinsried, Germany) and 6 and/or 96-well plates (TPP, Trasadingen, Switzerland) and left to settle for 24 h. The biscoumarin derivative solutions (at concentrations ranging from 10–100 µM) were then added to cells for 24 or 48 h, and analysis was subsequently performed.
(§3) MTT assays were performed in order to evaluate changes in the metabolic activity of cells that had occurred as a consequence of treatment with the biscoumarin derivatives. A549 cells (15 × 10^3 cells/cm^2) and CCD-18Co ([…]) were seeded in 96-well microplates. The cells were treated for 24 and 48 h with different concentrations (10, 25, 35, 50, 65, 75, and 100 µM) of the derivatives. After the treatment, the MTT (3-(4,5-dimethylthiazol-2-yl)-2,5-diphenyltertrazolium bromide) solution in PBS (5 mg mL^−1) was added to each well. […]. The absorbance of formazan (λ = 584 nm) was measured using a BMG FLUOstar Optima spectrometer (BMG Labtech GmbH, Offenburg, Germany). The results were evaluated as percentages of the absorbance of the untreated control. Results are presented as the average percentage of cells from three independent experiments. IC50 values for the derivatives were extrapolated from a sigmoidal fit (dose–response curve) to the metabolic activity data using OriginPro 8.5.0 SR1 (OriginLab Corp., Northampton, MA, USA).

hBChE (human plasma) = molecular target: T1, hBChE (human plasma) (Homo sapiens, UniProt P06276); assay: biochemical; format: biochemical; settings: human plasma BChE, mean of at least three experiments; for IC50: read-out: IC50 ± S.E.M. hBChE
T1 construct: Human plasma was used as a source of BChE; from tissue; host or cells: human plasma from heparinized blood
Procedure: (§4) Human recombinant AChE (EC 3.1.1.7), 5,5′-dithiobis(2-nitrobenzoic acid) (Ellman′s reagent, DTNB), phosphate buffer (PB, 0.1 M, pH 7.4), and acetylthiocholine (ATC) and butyrylthiocholine (BTC), were purchased from Sigma-Aldrich, Prague, Czech Republic. Human plasma was used as a source of BChE and was prepared from heparinized human blood. The blood was centrifuged for 20 min (4 °C, 2300× g) on a Hettich Universal 320R centrifuge. The plasma was separated and stored at […]. Polystyrene Nunc 96-well microplates with a flat bottom shape (ThermoFisher Scientific, Waltham, MA, USA) were used for measuring purposes.
(§5) All of the assays were carried out in a 0.1 M phosphate buffer, pH 7.4. The assay medium (100 µL) consisted of 40 µL of 0.1 M phosphate buffer (pH 7.4), 20 µL of 0.01 M DTNB, 10 µL of the enzyme, and 20 µL of 0.01 M substrate ATC/BTC iodide solution).
(§6) The tested compounds were preincubated for 5 min prior to use. The reaction was initiated immediately upon addition of 20 µL of the substrate. […] Each concentration was assayed in triplicate. Software GraphPad Prism 5 (San Diego, CA, USA) was used in the evaluation of the statistical data.

human recombinant AChE = molecular target: T2, human recombinant AChE (Homo sapiens, UniProt P22303); assay: biochemical; format: biochemical; settings: mean of at least three experiments; for IC50: read-out: IC50 ± S.E.M. hAChE
T2 construct: purchased Sigma-Aldrich, Prague, Czech Republic
Procedure: as §4, §5, §6

in vitro = settings: for Papp: PAMPA; for Papp / Pe ± S.E.M.: pH 7.4; for CNS Predicted Availability: classification from PAMPA-BBB Pe; for Pe ± S.E.M.: PAMPA-BBB
Procedure: The parallel artificial membrane permeability assay (PAMPA) is used as a non-cell-based in vitro assay to predict BBB penetration and is carried out in a coated 96-well membrane filter. In our assays, the filter membrane of the donor plate was coated with PBL (Polar Brain Lipid, Avanti, Denver, CO, USA) in dodecane (4 µL of 20 mg mL^−1 PBL in dodecane), and the acceptor well was filled with 300 µL of phosphate buffered saline (PBS) (pH 7.4; VA). The tested compounds were first dissolved in DMSO, and the resulting mixture was diluted with PBS (pH 7.4) to reach the final concentration (40–100 µM) in the donor well. […] Three hundred microliters of the donor solution (VD) were added to the donor wells, and the donor filter plate was carefully placed onto the acceptor plate to ensure that the coated membrane was “in contact” with both the donor solution and the acceptor buffer. The test compound diffused from the donor well through the polar brain lipid membrane (area = 0.28 cm^2) to the acceptor well. The concentration of the tested compound in both the donor and acceptor wells was assessed after 3, 4, 5, and 6 h of incubation, respectively, in quadruplicate using a UV plate reader Synergy HT (Biotek, Winooski, VT, USA) at the maximum absorption wavelength of each compound. Additionally, solutions at the theoretical equilibrium of the given compound (i.e., the theoretical concentration if the donor and acceptor compartment were simply combined) were also prepared.

A549 cells [3] = assay: Mitotic activity (Ki67 index) by immunolabelling and confocal microscopy; format: cell-based, human; settings: 24 h, vs control
Procedure: The studied biscoumarin derivatives were added to cells seeded on 12-well μ-Chamber slides for 24 h. After cultivation with the derivatives, the samples (both the control without the derivatives and experimental groups) were washed with a 0.1 M PBS solution buffer to remove all non-cell-absorbed derivative residues and fixed with 4% paraformaldehyde for 20 min at RT. Alternatively, cells were incubated with Mitotracker Red (0.5 µM; Thermo Fisher Scientific, Waltham, MA, USA) for 30 min at 37 °C, washed with 0.1 M PBS, and fixed with 4% paraformaldehyde for 20 min at RT. For the quantification of proliferative activity and programmed cell death, samples were incubated overnight at 4 °C with the mouse anti-Ki67 antibody (NCL-L-Ki67-MM1, 1:100, Leica Biosystems, Wetzlar, Germany) and rabbit anti-cleaved PARP (cat. no. 94885, 1:100, Cell Signaling, Danvers, MA, USA) diluted in 0.1 M PBS containing 1% normal donkey serum (Jackson Immunoresearch, Cambridgeshire, Great Britain) and 0.3% Triton-X 100. […]
All samples were evaluated using a Leica TCS SP5X confocal system (Leica Microsystems, Mannheim, Germany). The biscoumarin derivatives were visualized in cells using a 405 nm laser, and the fluorescence was captured in the range of 420–480 nm with identical exposure parameters for all samples. […] Microphotographs were taken with a 40× objective lens (NA = 0.75; voxel size 223 × 223 nm) and a 63× oil lens (NA = 1.4; voxel size 171 × 171 nm); the images were captured and analyzed using LAS AF software (Leica Microsystems, Wetzlar, Germany).
The proliferative activity of cells incubated with the studied derivatives was expressed as a Ki67 index. In all samples (n = 3 samples per each experimental group), the number of Ki67^+ nuclei was calculated in groups of 100 randomly selected cells. […]

A549 cells [4] = assay: Cell cycle analysis (flow cytometry, PI); format: cell-based, human; settings: 35 and 65 µM, 24 h
Procedure: For flow cytometric analysis of the cell cycle distribution, floating and adherent cells were harvested together 24 h after treatment with the derivatives (35 and 65 µM), washed in cold PBS, fixed in cold 70% ethanol, and stored overnight at −20 °C. Prior to analysis, the cells were washed twice in PBS, resuspended in a staining solution (0.1% Triton X-100, 0.137 g L^−1 ribonuclease A and 0.02 g L^−1 propidium iodide—PI), and incubated in dark conditions at RT for 30 min. The DNA content was analyzed using a BD FACSCalibur flow cytometer (Becton Dickinson, San Jose, CA, USA) with a 488 nm argon-ion excitation laser, and fluorescence was detected using a 585/42 nm band-pass filter (FL-2). ModFit 3.0 software (Verity Software House, Topsham, ME, USA) was used to generate DNA content frequency histograms and to quantify the percentage of cells in the individual cell cycle phases. The results are presented as the average ratio of cells in the individual phase to all cells from three independent experiments.

CCD-18Co fibroblasts = assay: MTT assay, CCD-18Co; format: cell-based; settings: for IC50: Homo sapiens, CCD-18Co
Procedure: as §1, §2, §3

[5] = A549, 24 h, read-out: IC50 A549 24 h
[6] = A549, read-out: IC50 A549 48 h, 48 h

T2 sequence (P22303 32-614): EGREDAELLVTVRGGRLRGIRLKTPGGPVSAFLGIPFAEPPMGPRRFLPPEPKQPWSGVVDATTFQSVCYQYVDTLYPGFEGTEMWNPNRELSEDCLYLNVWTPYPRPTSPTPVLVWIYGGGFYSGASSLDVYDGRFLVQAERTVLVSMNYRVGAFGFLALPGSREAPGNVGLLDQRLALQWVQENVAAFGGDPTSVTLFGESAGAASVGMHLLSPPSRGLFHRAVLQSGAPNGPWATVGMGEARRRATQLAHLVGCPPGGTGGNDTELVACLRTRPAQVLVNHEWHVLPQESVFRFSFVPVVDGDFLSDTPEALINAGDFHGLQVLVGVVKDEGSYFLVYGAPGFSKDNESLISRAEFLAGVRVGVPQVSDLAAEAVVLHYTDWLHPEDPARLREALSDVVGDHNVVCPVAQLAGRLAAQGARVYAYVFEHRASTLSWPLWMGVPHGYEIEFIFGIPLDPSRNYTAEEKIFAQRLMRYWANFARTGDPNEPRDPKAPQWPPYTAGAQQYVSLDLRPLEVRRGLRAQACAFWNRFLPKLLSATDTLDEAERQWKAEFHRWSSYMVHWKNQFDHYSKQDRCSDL
T1 sequence (P06276 29-602): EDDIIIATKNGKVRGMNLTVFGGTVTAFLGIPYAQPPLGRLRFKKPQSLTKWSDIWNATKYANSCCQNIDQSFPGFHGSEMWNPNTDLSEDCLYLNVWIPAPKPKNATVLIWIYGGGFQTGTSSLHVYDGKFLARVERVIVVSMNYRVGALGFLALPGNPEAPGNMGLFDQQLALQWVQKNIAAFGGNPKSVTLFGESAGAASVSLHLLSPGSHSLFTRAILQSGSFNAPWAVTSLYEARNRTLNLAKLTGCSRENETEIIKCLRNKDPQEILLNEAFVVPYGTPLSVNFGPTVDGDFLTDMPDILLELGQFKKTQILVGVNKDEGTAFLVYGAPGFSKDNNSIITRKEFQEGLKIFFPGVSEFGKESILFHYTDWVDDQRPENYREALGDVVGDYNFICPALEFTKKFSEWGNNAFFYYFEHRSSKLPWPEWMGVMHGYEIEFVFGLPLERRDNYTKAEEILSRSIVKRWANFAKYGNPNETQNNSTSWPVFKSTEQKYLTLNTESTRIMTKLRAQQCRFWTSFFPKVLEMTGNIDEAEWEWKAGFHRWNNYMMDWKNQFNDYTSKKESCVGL

Structure (SMILES)	Metabolic activity of A549 cells (in words) (A549 cells [2])	IC50 (A549 cells [2]; [5]) [µM]	IC50 (A549 cells [2]; [6]) [µM]	IC50 (hBChE (human plasma)) [µM]	IC50 (human recombinant AChE) [µM]	Papp (in vitro) [×10⁻⁶ cm/s]	CNS Predicted Availability (in vitro)	also measured
O=c1[nH]cc(F)c(=O)[nH]1 [5-fluorouracil]	–	–	–	–	–	–	–	IC50 (A549 cancer cell line): 36.3 µM; IC50 [1]: 25.1 µM
COC(=O)Cc1cc(=O)oc2cc(OCCCN3CCN(CCNC(=O)Cc4cc(=O)oc5cc(O)ccc45)CC3)ccc12 [12a]	did not lose the ability to convert dye	> 100	> 100	> 500	> 500	1.53 ± 0.64	CNS− (CNS−: low BBB permeation predicted with Pe (×10^−6 cm s^−1) < 2.0)	IC50 ± S.E.M. hBChE (hBChE (human plasma)): did not show inhibitory activity; IC50 ± S.E.M. hAChE (human recombinant AChE): did not show inhibitory activity; Number of proliferating cells (Ki67 index), in words (A549 cells [3]): no significant changes
COC(=O)Cc1cc(=O)oc2cc(OCCCCN3CCN(CCNC(=O)Cc4cc(=O)oc5cc(O)ccc45)CC3)ccc12 [12b]	did not lose the ability to convert dye	> 100	> 100	> 500	> 500	–	CNS− (CNS−: low BBB permeation predicted with Pe (×10^−6 cm s^−1) < 2.0)	IC50 ± S.E.M. hBChE (hBChE (human plasma)): did not show inhibitory activity; IC50 ± S.E.M. hAChE (human recombinant AChE): did not show inhibitory activity
COC(=O)Cc1cc(=O)oc2cc(OCCCCCCN3CCN(CCNC(=O)Cc4cc(=O)oc5cc(O)ccc45)CC3)ccc12 [12c, Methyl 2-[7-({7-[4-(2-{[2-(7-hydroxy-2-oxo-2H-4-chromenyl)acetyl]amino}ethyl)piperazino]hexyl}oxy)-2-oxo-2H-4-chromenyl]acetate]	did not lose the ability to convert dye	> 100	> 100	> 500	88.4 ± 12.6	2.96 ± 0.73	CNS+/− (CNS +/−: BBB permeation uncertain with Pe (×10^−6 cm s^−1) from 4.0 to 2)	Pe ± S.E.M. (in vitro): 2.0–4.0 10^−6 cm s^−1; Cell cycle distribution, G0/G1 phase (in words) (A549 cells [4]): increased the accumulation of cell population in the G0/G1 phase
COC(=O)Cc1cc(=O)oc2cc(OCCCCCCCN3CCN(CCNC(=O)Cc4cc(=O)oc5cc(O)ccc45)CC3)ccc12 [12d]	significant decrease	94	58	49	6.3 ± 0.4	2.11 ± 1.19	CNS+/− (CNS +/−: BBB permeation uncertain with Pe (×10^−6 cm s^−1) from 4.0 to 2)	Pe ± S.E.M. (in vitro): 2.0–4.0 10^−6 cm s^−1; Metabolic activity of CCD-18Co cells (in words) (CCD-18Co fibroblasts; 24 or 48 h): significantly reduced metabolic activity only at a concentration of 100 μM; IC50 (CCD-18Co fibroblasts; 24 h, read-out: IC50 CCD-18Co 24 h): > 100 µM; IC50 (CCD-18Co fibroblasts; read-out: IC50 CCD-18Co 48 h, 48 h): > 100 µM; IC50 (CCD-18Co fibroblasts; time not stated, read-out: IC50 CCD-18Co): > 100 µM; Cell cycle distribution, G0/G1 phase (in words) (A549 cells [4]): increase in the percentage of the cell population in the G0/G1 phase
CNC(=C[N+](=O)[O-])NCCSCc1ccc(CN(C)C)o1 [Ranitidine, reference compound]	–	–	–	–	–	–	CNS− (CNS−: low BBB permeation predicted with Pe (×10^−6 cm s^−1) < 2.0)	–
Nc1c2c(nc3ccccc13)CCCC2 [Tacrine, tacrine, reference compound]	–	–	–	–	–	–	CNS+ (CNS+: high BBB permeation predicted with Pe (×10^−6 cm s^−1) > 4.0)	–
N.N.[Cl][Pt][Cl] [cisplatin]	–	–	–	–	–	–	–	IC50 (A549 cancer cell line): 13.5 µM; IC50 [1]: 9.68 µM
